The GI50 is the concentration at which growth is held to half of that of the control. High values mean lower sensitivity of the cells, low ones greater sensitivity of the cells.

The assay concerns MV-4-11 (human, Acute Myeloid Leukemia cell line) cells. Put plainly: Cell growth inhibition assay, GI50 of MV-4-11. The class given is cell-based. To be noted: Homo sapiens, MV4-11, 72 h, MV-4-11 cells. Here is the method:
The anti-proliferative activity (cell growth inhibition assay) of the compounds according to the present invention against AML (Acute Myeloid Leukemia) cancer cells was measured. […] The lower the GI50 value, the higher the anti-proliferative activity.
A cell growth Inhibition assay was performed to investigate the rate of inhibition of cell proliferation by the compounds of the present invention. MV-4-11 (human, Acute Myeloid Leukemia cell line) cells were cultured in Iscove's modified Dulbecco's medium (IMDM) including 10% fetal bovine serum (FBS), 1× penicillin/streptomycin (10,000 units/ml Penicillin, […] Streptomycin in 0.85% NaCl). MV-4-11 cells were harvested with the IMDM and 5×10^4 cells/well were transferred to each well of 96-well culture plates (Nunc, #167008).
The compounds of Examples 1 to 5 were exposed to serial dilution and duplicated for each concentration. For the serial dilution, the compounds of the present invention were repeatedly diluted with the same volume of media onto 96-well assay block (costar, #3956). After the dilution, each compound was added to each well.
Also, the background absorbance was measured during the treatment with the test compounds by replacing the test compound with IMDM in the negative control plate. The plates were incubated for three days (72 hours) at 37 in the humidified incubator containing 5% CO2. On the last day, 20 µl of a CellTiter 96 Aqueous One Solution (Promega #G3581) was added to the culture in each well and the plates were incubated for a few hours at 37 in the humidified incubator containing 5% CO2. After the incubation, the absorbance of each cell was measured at 490 nm using an EnVision (Perkinelmer, USA).
The GI50 values were calculated using a Prism 3.0 program.
In turn, `C=CCN1CC(=O)N2[C@@H](Cc3ccc(O)cc3)C(=O)N(Cc3cccc4c(-c5ccc(C(=O)Nc6ccc(CN)cc6)cc5)cn(C)c34)C[C@@H]2N1C(=O)NCc1ccccc1` [Compound D-19] came in with a GI50 of 2 nM. As to `C=CCN1CC(=O)N2[C@@H](Cc3ccc(O)cc3)C(=O)N(Cc3cccc4c(C(=O)NCc5cccc(N6CCCC6)n5)cn(C)c34)C[C@@H]2N1C(=O)NCc1ccccc1` [Compound F-49], the GI50 was found to be 11.4 nM. Consider `C=CCN1CC(=O)N2[C@@H](Cc3ccc(O)cc3)C(=O)N(Cc3cccc4c(-c5ccc(C(=O)NNCC(F)(F)F)cc5)cn(C)c34)C[C@@H]2N1C(=O)NCc1ccccc1` [Compound D-37], for which the GI50 was 1.3 nM.

For `C=CCN1CC(=O)N2[C@@H](Cc3ccc(O)cc3)C(=O)N(Cc3cccc4c(-c5ccc(C(=O)NCCN(C)C)cc5)cn(C)c34)C[C@@H]2N1C(=O)NCc1ccccc1` [Compound D-39], halving of growth (GI50) required 1.2 nM. The result for `C=CCN1CC(=O)N2[C@@H](Cc3ccc(O)cc3)C(=O)N(Cc3cccc4c(C(=O)NCc5ccccn5)cn(C)c34)C[C@@H]2N1C(=O)NCc1ccccc1` [Compound F-42] reads 9.1 nM; that for `C=CCN1CC(=O)N2[C@@H](Cc3ccc(O)cc3)C(=O)N(Cc3cccc4c(C(=O)N(C)Cc5cccc(C)n5)cn(C)c34)C[C@@H]2N1C(=O)NCc1ccccc1` [Compound F-45], 1.7 nM; that for `C=CCN1CC(=O)N2[C@@H](Cc3ccc(O)cc3)C(=O)N(Cc3cccc4c(C(=O)N5CCN(Cc6ccc(OC)cc6)CC5)cn(C)c34)C[C@@H]2N1C(=O)NCc1ccccc1` [Compound E-36], 8.4 nM.

In the case of `C=CCN1CC(=O)N2[C@@H](Cc3ccc(O)cc3)C(=O)N(Cc3cccc4c(-c5ccc(NC(=O)NC(C)C)nc5)cn(C)c34)C[C@@H]2N1C(=O)NCc1ccccc1` [Compound D-99], halving of growth (GI50) required 2.7 nM. The result for `C=CCN1CC(=O)N2[C@@H](Cc3ccc(O)cc3)C(=O)N(Cc3cccc4c(C(=O)N5CCN(C(C)(C)C)CC5)cn(C)c34)C[C@@H]2N1C(=O)NCc1ccccc1` [Compound E-8] reads 8.9 nM; that for `C=CCN1CC(=O)N2[C@@H](Cc3ccc(O)cc3)C(=O)N(Cc3cccc4c(-c5ccc(NC(=O)N6CC(N7CCC(OC)CC7)C6)cc5)cn(C)c34)C[C@@H]2N1C(=O)NCc1ccccc1` [Compound D-66-1], 1.4 nM. `C=CCN1CC(=O)N2[C@@H](Cc3ccc(O)cc3)C(=O)N(Cc3cccc4c(-c5ccc(NC(=O)C6CCN(C(C)=O)CC6)nc5)cn(C)c34)C[C@@H]2N1C(=O)NCc1ccccc1` [Compound D-89] displayed a GI50 of 1.3 nM. The result for `C=CCN1CC(=O)N2[C@@H](Cc3ccc(O)cc3)C(=O)N(Cc3cccc4c(C(=O)N5CCN(c6ccccc6)CC5)cn(C)c34)C[C@@H]2N1C(=O)NCc1ccccc1` [Compound E-37] reads 16.4 nM; that for `C=CCN1CC(=O)N2[C@@H](Cc3ccc(O)cc3)C(=O)N(Cc3cccc4c(-c5ccc(C(=O)NC6CCC(N)CC6)cc5)cn(C)c34)C[C@@H]2N1C(=O)NCc1ccccc1` (stereo partly drawn) [Compound D-30], 1.5 nM. The same measure for `C=CCN1CC(=O)N2C(CN(Cc3cccc4c(C(=O)Nc5ccc(N6CCC(N7CCOCC7)CC6)nc5)cn(C)c34)C(=O)[C@@H]2Cc2ccc(O)cc2)N1C(=O)NCc1ccccc1` (stereo partly shown) [Compound G-56]: 1.3 nM. As for `C=CCN1CC(=O)N2[C@@H](Cc3ccc(O)cc3)C(=O)N(Cc3cccc4c(-c5ccc(NC(=O)c6ccc(CN)cc6)cc5)cn(C)c34)C[C@@H]2N1C(=O)NCc1ccccc1` [Compound D-53], it took 1.2 nM to inhibit growth by half (GI50).

The compound `C=CCN1CC(=O)N2[C@@H](Cc3ccc(O)cc3)C(=O)N(Cc3cccc4c(-c5ccc(C(=O)NCc6ccccc6)cc5)cn(C)c34)C[C@@H]2N1C(=O)NCc1ccccc1` [Compound D-27] came in with a GI50 of 4.3 nM. The result for `C=CCN1CC(=O)N2C(CN(Cc3cccc4c(C(=O)Nc5ccc(O)cc5)cn(C)c34)C(=O)[C@@H]2Cc2ccc(O)cc2)N1C(=O)NCc1ccccc1` (stereo partly shown) [Compound G-2] reads 8 nM; that for `C=CCN1CC(=O)N2[C@@H](Cc3ccc(O)cc3)C(=O)N(Cc3cccc4c(C(=O)NCCc5cccnc5)cn(C)c34)C[C@@H]2N1C(=O)NCc1ccccc1` [Compound F-52], 4.6 nM. The compound `C=CCN1CC(=O)N2[C@@H](Cc3ccc(O)cc3)C(=O)N(Cc3cccc4c(C(=O)N(C)CCCN5CCN(C)CC5)cn(C)c34)C[C@@H]2N1C(=O)NCc1ccccc1` [Compound F-31] had a GI50 of 1.9 nM. The same measure for `C=CCN1CC(=O)N2[C@@H](Cc3ccc(O)cc3)C(=O)N(Cc3cccc4c(-c5ccc(C(=O)Nc6ccc(N7CCNCC7)cc6)cc5)cn(C)c34)C[C@@H]2N1C(=O)NCc1ccccc1` [Compound D-13]: 1.2 nM; for `C=CCN1CC(=O)N2[C@@H](Cc3ccc(O)cc3)C(=O)N(Cc3cccc4c(-c5cccc(C(=O)N6CCOCC6)c5)cn(C)c34)C[C@@H]2N1C(=O)NCc1ccccc1` [Compound D-1]: 1.8 nM. The result for `C=CCN1CC(=O)N2C(CN(Cc3cccc4c(C(=O)Nc5ccc(N)cc5)cn(C)c34)C(=O)[C@@H]2Cc2ccc(O)cc2)N1C(=O)NCc1ccccc1` (stereo partly shown) [Compound G-8] reads 7.4 nM. The same measure for `C=CCN1CC(=O)N2[C@@H](Cc3ccc(O)cc3)C(=O)N(Cc3cccc4c(-c5ccc(NC(=O)N6CCN(C)CC6)nc5)cn(C)c34)C[C@@H]2N1C(=O)NCc1ccccc1` [Compound D-87]: 1.3 nM; for `C=CCN1CC(=O)N2[C@@H](Cc3ccc(O)cc3)C(=O)N(Cc3cccc4c(-c5ccc(NC(=O)NCC)nc5)cn(C)c34)C[C@@H]2N1C(=O)NCc1ccccc1` [Compound D-94]: 1.5 nM. As for `C=CCN1CC(=O)N2C(CN(Cc3cccc4c(C(=O)Nc5ccc(NCCCO)nc5)cn(C)c34)C(=O)[C@@H]2Cc2ccc(O)cc2)N1C(=O)NCc1ccccc1` (stereo partly shown) [Compound G-19], it took 9.3 nM to inhibit growth by half (GI50). Regarding `C=CCN1CC(=O)N2C(Cc3ccc(O)cc3)C(=O)N(Cc3cccc4c(C(=O)Nc5ccc(NCC)nc5)cn(C)c34)CC2N1C(=O)NCc1ccccc1` (stereo not shown) [Compound G-16], the GI50 worked out at 1.7 nM. The same measure for `C=CCN1CC(=O)N2[C@@H](Cc3ccc(O)cc3)C(=O)N(Cc3cccc4c(C(=O)N5CCN(C6CCCC6)CC5)cn(C)c34)C[C@@H]2N1C(=O)NCc1ccccc1` [Compound E-18]: 20.9 nM; for `C=CCN1CC(=O)N2[C@@H](Cc3ccc(O)cc3)C(=O)N(Cc3cccc4c(-c5ccc(C(=O)N6CCCCC6)cc5)cn(C)c34)C[C@@H]2N1C(=O)NCc1ccccc1` [Compound D-4]: 1.4 nM; for `C=CCN1CC(=O)N2[C@@H](Cc3ccc(O)cc3)C(=O)N(Cc3cccc4c(C(=O)N(C)Cc5ccccn5)cn(C)c34)C[C@@H]2N1C(=O)NCc1ccccc1` [Compound F-43]: 17.8 nM.

For the compound `C=CCN1CC(=O)N2[C@@H](Cc3ccc(O)cc3)C(=O)N(Cc3cccc4c(C(=O)N(C)Cc5cccnc5)cn(C)c34)C[C@@H]2N1C(=O)NCc1ccccc1` [Compound F-41], halving of growth (GI50) required 11.6 nM. Take `C=CCN1CC(=O)N2[C@@H](Cc3ccc(O)cc3)C(=O)N(Cc3cccc4c(-c5ccc(C(=O)NNC)cc5)cn(C)c34)C[C@@H]2N1C(=O)NCc1ccccc1` [Compound D-33]: halving of growth (GI50) required 1.4 nM. `C=CCN1CC(=O)N2[C@@H](Cc3ccc(O)cc3)C(=O)N(Cc3cccc4c(C(=O)N5CCN(C(=O)OC(C)(C)C)CC5)cn(C)c34)C[C@@H]2N1C(=O)NCc1ccccc1` [Compound E-1] registered a GI50 of 5.8 nM. Take `C=CCN1CC(=O)N2[C@@H](Cc3ccc(O)cc3)C(=O)N(Cc3cccc4c(-c5ccc(NC(=O)C6CCN(C)CC6)cc5)cn(C)c34)C[C@@H]2N1C(=O)NCc1ccccc1` [Compound D-62]: the 50% growth inhibitory concentration (GI50) came out at 1.3 nM. The result for `C=CCN1CC(=O)N2[C@@H](Cc3ccc(O)cc3)C(=O)N(Cc3cccc4c(-c5cccc(C(=O)N6CCC(O)CC6)c5)cn(C)c34)C[C@@H]2N1C(=O)NCc1ccccc1` [Compound D-6] reads 1.7 nM; that for `C=CCN1CC(=O)N2[C@@H](Cc3ccc(O)cc3)C(=O)N(Cc3cccc4c(-c5cccc(C(=O)NC6CC6)c5)cn(C)c34)C[C@@H]2N1C(=O)NCc1ccccc1` [Compound D-29], 1.3 nM.

In the case of `C=CCN1CC(=O)N2[C@@H](Cc3ccc(O)cc3)C(=O)N(Cc3cccc4c(C(=O)Nc5ccc(N(C)Cc6cncn6C)nc5)cn(C)c34)C[C@@H]2N1C(=O)NCc1ccccc1` [Compound G-34], the GI50 was 1.37 nM. Compound `C=CCN1CC(=O)N2[C@@H](Cc3ccc(O)cc3)C(=O)N(Cc3cccc4c(C(=O)N5CCN(C6CC6)CC5)cn(C)c34)C[C@@H]2N1C(=O)NCc1ccccc1` [Compound E-17] showed a GI50 of 4.5 nM. The result for `C=CCN1CC(=O)N2[C@@H](Cc3ccc(O)cc3)C(=O)N(Cc3cccc4c(-c5ccc(C(=O)NC6CCN(C)CC6)o5)cn(C)c34)C[C@@H]2N1C(=O)NCc1ccccc1` [Compound D-103] reads 10.8 nM; that for `C=CCN1CC(=O)N2[C@@H](Cc3ccc(O)cc3)C(=O)N(Cc3cccc4c(-c5ccc(C(=O)NNC(C)C)cc5)cn(C)c34)C[C@@H]2N1C(=O)NCc1ccccc1` [Compound D-35], 15 nM. The result for `C=CCN1CC(=O)N2[C@@H](Cc3ccc(O)cc3)C(=O)N(Cc3cccc4c(-c5ccc(C(=O)NNCc6ccccc6)cc5)cn(C)c34)C[C@@H]2N1C(=O)NCc1ccccc1` [Compound D-38] reads 3.2 nM.

These data come from patent US8940739B2, “Compound of a reverse-turn mimetic and a production method and use therefor” (JW Pharmaceutical Corporation, priority 2010, dated 2015).
